{"source": "patent US11453697B1", "about": "“Cyclic di-nucleotide compounds as sting agonists” (Merck Sharp & Dohme Corp., priority 2015, dated 2022)"}
{"test_system": "IFN-β secretion in THP1 cells", "test": "IFN-β secretion in THP1 cell culture (5 h)", "type": "cell-based, human", "settings": "not given", "protocol": "(§1) The ability of compounds to stimulate the secretion of interferon-beta from THP1 cells was measured using a human IFN-β AlphaLISA kit (Perkin Elmer, Cat. No. AL265F). The basic protocol is as follows:\n(§2) The cell viability and count was ascertained using a Beckman Coulter V-Cell XR cell counter. The cells suspension was centrifuged at 200×g for 5 min at RT. […] Subsequent liquid transfers were performed using either a Matrix electronic multichannel pipette or an Agilent Bravo Automated Liquid Handling Platform.\n(§3) The assay was started by dispensing 40 μL of the previously prepared cell suspension into the wells of the plate containing compounds. After 5 h incubation at 37° C., 5% CO2 in a humidified atmosphere, the plate of cells and compounds was centrifuged at 200×g for 5 min at RT. […] To these supernatant-containing wells was added 10 μL of 5× Anti-Analyte Acceptor beads (50 μg/mL of AlphaLISA HiBlock Buffer) and incubated for 30 min at RT while shaking on an orbital plate shaker. To each well was added 10 μL of 5× Biotinylated Antibody Anti-analyte (5 nM in AlphaLISA HiBlock Buffer) and incubated on an orbital plate shaker for 60 min at RT or overnight at 4° C. To each well was added 25 μL of 2× SA-Donor beads (80 μg/mL in AlphaLISA HiBlock Buffer) and incubated for 30-45 min at RT in the dark while shaking on an orbital plate shaker. The plate was then read on a Perkin Elmer Envision (λex=680 nm, λem=[…]). The percent effect of the AlphaLISA signal at each compound concentration was calculated based on 30 uM cGAMP positive controls and 0.3% DMSO negative controls. The plot of percent effect versus the log of compound concentration was fit with a 4-parameter concentration response equation to calculate EC50 values.\n(§4) Compounds of the disclosure were evaluated for IFN-β secretion in THP1 cell culture as described above.", "units": {"% Effect at 30 μM relative to 2′3′-cGAMP": "%"}}
{"smiles": "Nc1nc2c(ncn2[C@@H]2O[C@@H]3COP(=O)(S)O[C@H]4[C@H](F)[C@H](n5cnc6c(N)ncnc65)O[C@@H]4COP(=O)(S)O[C@@H]2[C@H]3F)c(=O)[nH]1", "note": "(single isomer, unassigned) [Example 145]", "% Effect at 30 μM relative to 2′3′-cGAMP": 141}
{"smiles": "Nc1nc2c(ncn2[C@@H]2O[C@@H]3COP(=O)(O)OC4C(F)[C@H](n5cnc6c(N)ncnc65)O[C@@H]4COP(=O)(O)OC2C3O)c(=O)[nH]1", "note": "(stereo in doubt) [Example 2, (5R,7R,8R,12aR,14R,15R,15aR,16R)-7-(2-amino-6-oxo-1,6-dihydro-9H-purin-9-yl)-14-(6-amino-9H-purin-9-yl)-15-fluoro-16-hydroxyoctahydro-12H-5,8-methanofuro[3,2-l] [1,3,6,9,11,2,10]pentaoxadiphosphacyclotetradecine-2,10-diolate 2,10-dioxide]", "% Effect at 30 μM relative to 2′3′-cGAMP": 148}
{"smiles": "Nc1nc2c(ncn2[C@@H]2O[C@@H]3COP(=O)(O)OC4C(O)[C@H](n5cnc6c(N)ncnc65)O[C@@H]4COP(=O)(O)OC2C3F)c(=O)[nH]1", "note": "(stereo in doubt) [Example 5, (5R,7R,8S,12aR,14R,15R,15aS,16R)-7-(2-amino-6-oxo-1,6-dihydro-9H-purin-9-yl)-14-(6-amino-9H-purin-9-yl)-16-fluoro-15-hydroxyoctahydro-12H-5,8-methanofuro[3,2-l] [1,3,6,9,11,2,10]pentaoxadiphosphacyclotetradecine-2,10-diolate 2,10-dioxide]", "% Effect at 30 μM relative to 2′3′-cGAMP": 152}
{"test_system": "IFN-β secretion in THP1 cells", "test": "IFN-β secretion in THP1 cell culture (5 h)", "type": "cell-based, human", "settings": "IFN-β secretion in THP1 cell culture, 5 h; compound at 30 μM; percent activation relative to 2′3′-cGAMP", "protocol": "as §1, §2, §3, §4", "units": {"% Effect at 30 μM relative to 2′3′-cGAMP": "%"}}
{"smiles": "Nc1nc2c(ncn2[C@@H]2O[C@@H]3COP(=O)(S)OC4[C@@H](COP(=O)(S)O[C@H]2C3O)O[C@@H](n2cnc3c(N)ncnc32)[C@H]4F)c(=O)[nH]1", "note": "(single isomer, unassigned) [Example 82]", "% Effect at 30 μM relative to 2′3′-cGAMP": 111}
{"smiles": "Nc1nc2c(ncn2[C@@H]2O[C@@H]3COP(=O)(S)OC4[C@@H](COP(=O)(S)O[C@H]2C3O)O[C@@H](n2cnc3c(N)ncnc32)[C@H]4F)c(=O)[nH]1", "note": "(single isomer, unassigned) [Example 83]", "% Effect at 30 μM relative to 2′3′-cGAMP": 133}
{"smiles": "Nc1nc2c(ncn2[C@@H]2O[C@@H]3COP(=O)(S)OC4C(O)[C@H](n5cnc6c(N)ncnc65)O[C@@H]4COP(=O)(S)OC2C3)c(=O)[nH]1", "note": "(single isomer, unassigned) [Example 87]", "% Effect at 30 μM relative to 2′3′-cGAMP": 99}
{"smiles": "Nc1nc2c(ncn2[C@@H]2O[C@@H]3COP(=O)(S)OC4C(O)[C@H](n5cnc6c(N)ncnc65)O[C@@H]4COP(=O)(S)OC2C3)c(=O)[nH]1", "note": "(single isomer, unassigned) [Example 88]", "% Effect at 30 μM relative to 2′3′-cGAMP": 54}
{"smiles": "Nc1nc2c(ncn2[C@@H]2O[C@@H]3CO[P@@](=O)(S)OC4[C@@H](CO[P@@](=O)(S)O[C@H]2C3O)O[C@@H](n2cnc3c(N)ncnc32)[C@H]4F)c(=O)[nH]1", "note": "(single isomer, unassigned) [Example 89]", "% Effect at 30 μM relative to 2′3′-cGAMP": 119}
{"smiles": "Nc1nc2c(ncn2[C@@H]2O[C@@H]3COP(=O)(S)OC4[C@@H](COP(=O)(S)OC2C3O)O[C@@H](n2cnc3c(N)ncnc32)[C@H]4F)c(=O)[nH]1", "note": "(single isomer, unassigned) [Example 90]", "% Effect at 30 μM relative to 2′3′-cGAMP": 117}
{"smiles": "Nc1nc2c(ncn2[C@@H]2O[C@@H]3COP(=O)(S)OC4[C@@H](COP(=O)(S)OC2C3O)O[C@@H](n2cnc3c(N)ncnc32)[C@H]4F)c(=O)[nH]1", "note": "(single isomer, unassigned) [Example 91]", "% Effect at 30 μM relative to 2′3′-cGAMP": 106}
{"smiles": "Nc1nc2c(ncn2[C@@H]2O[C@@H]3COP(=O)(S)OC4[C@@H](COP(=O)(S)OC2C3O)O[C@@H](n2cnc3c(N)ncnc32)[C@H]4F)c(=O)[nH]1", "note": "(single isomer, unassigned) [Example 92]", "% Effect at 30 μM relative to 2′3′-cGAMP": 62}
{"smiles": "Nc1nc2c(ncn2[C@@H]2O[C@@H]3COP(=O)(S)OC4C5OC[C@]4(COP(=O)(S)OC2C3O)O[C@H]5n2cnc3c(N)ncnc32)c(=O)[nH]1", "note": "(single isomer, unassigned) [Example 94]", "% Effect at 30 μM relative to 2′3′-cGAMP": 138}
{"smiles": "Nc1nc2c(ncn2[C@@H]2O[C@@H]3COP(=O)(S)OC4C5OC[C@]4(COP(=O)(S)OC2C3O)O[C@H]5n2cnc3c(N)ncnc32)c(=O)[nH]1", "note": "(single isomer, unassigned) [Example 95]", "% Effect at 30 μM relative to 2′3′-cGAMP": 118}
{"smiles": "Nc1nc2c(ncn2[C@@H]2O[C@@H]3CO[P@@](=O)(S)O[C@H]4[C@H](F)[C@H](n5cnc6c(N)ncnc65)O[C@@H]4CO[P@@](=O)(S)O[C@@H]2[C@H]3F)c(=O)[nH]1", "note": "(single isomer, unassigned) [Example 144]", "% Effect at 30 μM relative to 2′3′-cGAMP": 114}
{"smiles": "Nc1nc2c(ncn2[C@@H]2O[C@@H]3COP(=O)(S)O[C@H]4[C@H](F)[C@H](n5cnc6c(N)ncnc65)O[C@@H]4COP(=O)(S)O[C@@H]2[C@H]3F)c(=O)[nH]1", "note": "(single isomer, unassigned) [Example 146]", "% Effect at 30 μM relative to 2′3′-cGAMP": 59}
{"smiles": "Nc1nc2c(ncn2[C@@H]2O[C@@H]3COP(O)(=S)O[C@H]4[C@H](F)[C@H](n5cnc6c(N)ncnc65)O[C@@H]4COP(O)(=S)O[C@@H]2[C@@H]3F)c(=O)[nH]1", "note": "(single isomer, unassigned) [Example 244]", "% Effect at 30 μM relative to 2′3′-cGAMP": 96}
{"smiles": "Nc1nc2c(ncn2[C@@H]2O[C@@H]3COP(O)(=S)O[C@H]4[C@H](F)[C@H](n5cnc6c(N)ncnc65)O[C@@H]4COP(O)(=S)O[C@@H]2[C@@H]3F)c(=O)[nH]1", "note": "(single isomer, unassigned) [Example 245]", "% Effect at 30 μM relative to 2′3′-cGAMP": 234}
{"smiles": "Nc1nc2c(ncn2[C@@H]2O[C@@H]3COP(O)(=S)O[C@H]4[C@H](F)[C@H](n5cnc6c(N)ncnc65)O[C@@H]4COP(O)(=S)O[C@@H]2[C@@H]3F)c(=O)[nH]1", "note": "(single isomer, unassigned) [Example 246]", "% Effect at 30 μM relative to 2′3′-cGAMP": 217}
{"smiles": "Nc1nc2c(ncn2[C@@H]2O[C@@H]3COP(=O)(O)O[C@H]4[C@H](F)[C@H](n5cnc6c(N)ncnc65)O[C@@H]4COP(O)(=S)O[C@@H]2[C@@H]3F)c(=O)[nH]1", "note": "(single isomer, unassigned) [Example 273]", "% Effect at 30 μM relative to 2′3′-cGAMP": 85}
{"smiles": "Nc1nc2c(ncn2[C@@H]2O[C@@H]3COP(=O)(O)O[C@H]4[C@H](F)[C@H](n5cnc6c(N)ncnc65)O[C@@H]4COP(O)(=S)O[C@@H]2[C@@H]3F)c(=O)[nH]1", "note": "(single isomer, unassigned) [Example 274]", "% Effect at 30 μM relative to 2′3′-cGAMP": 124}
{"smiles": "Nc1nc2c(nnn2[C@@H]2O[C@@H]3COP(=O)(S)O[C@H]4[C@H](F)[C@H](n5nnc6c(=O)[nH]cnc65)O[C@@H]4COP(=O)(S)O[C@@H]2C3)c(=O)[nH]1", "note": "(single isomer, unassigned) [Example 340]", "% Effect at 30 μM relative to 2′3′-cGAMP": 306}
{"smiles": "Nc1nc2c(nnn2[C@@H]2O[C@@H]3COP(=O)(S)O[C@H]4[C@H](F)[C@H](n5nnc6c(=O)[nH]cnc65)O[C@@H]4COP(=O)(S)O[C@@H]2C3)c(=O)[nH]1", "note": "(single isomer, unassigned) [Example 341]", "% Effect at 30 μM relative to 2′3′-cGAMP": 7}
{"smiles": "Nc1nc2c(nnn2[C@@H]2O[C@@H]3COP(=O)(S)O[C@H]4[C@H](F)[C@H](n5cnc6c(=O)[nH]cnc65)O[C@@H]4COP(=O)(S)O[C@@H]2[C@@H]3F)c(=O)[nH]1", "note": "(single isomer, unassigned) [Example 342]", "% Effect at 30 μM relative to 2′3′-cGAMP": 23}
{"smiles": "Nc1nc2c(nnn2[C@@H]2O[C@@H]3COP(=O)(S)O[C@H]4[C@H](F)[C@H](n5cnc6c(=O)[nH]cnc65)O[C@@H]4COP(=O)(S)O[C@@H]2[C@@H]3F)c(=O)[nH]1", "note": "(single isomer, unassigned) [Example 343]", "% Effect at 30 μM relative to 2′3′-cGAMP": 255}
{"smiles": "Nc1nc2c(nnn2[C@@H]2O[C@@H]3COP(=O)(S)O[C@H]4[C@H](F)[C@H](n5nnc6c(=O)[nH]cnc65)O[C@@H]4COP(=O)(S)O[C@@H]2[C@@H]3F)c(=O)[nH]1", "note": "(single isomer, unassigned) [Example 344]", "% Effect at 30 μM relative to 2′3′-cGAMP": 337}
{"smiles": "Nc1nc2c(nnn2[C@@H]2O[C@@H]3COP(=O)(S)O[C@H]4[C@H](F)[C@H](n5nnc6c(=O)[nH]cnc65)O[C@@H]4COP(=O)(S)O[C@@H]2[C@@H]3F)c(=O)[nH]1", "note": "(single isomer, unassigned) [Example 345]", "% Effect at 30 μM relative to 2′3′-cGAMP": 144}
{"smiles": "Nc1nc2c(ncn2[C@@H]2O[C@@H]3COP(=O)(O)O[C@H]4[C@H](F)[C@H](n5nnc6c(=O)[nH]cnc65)O[C@@H]4COP(=O)(S)O[C@@H]2[C@@H]3F)c(=O)[nH]1", "note": "(single isomer, unassigned) [Example 346]", "% Effect at 30 μM relative to 2′3′-cGAMP": 182}
{"smiles": "Nc1nc2c(ncn2[C@@H]2O[C@@H]3COP(=O)(O)O[C@H]4[C@H](F)[C@H](n5nnc6c(=O)[nH]cnc65)O[C@@H]4COP(=O)(S)O[C@@H]2[C@@H]3F)c(=O)[nH]1", "note": "(single isomer, unassigned) [Example 347]", "% Effect at 30 μM relative to 2′3′-cGAMP": 225}
